Results on two compounds are retold here after patent publication US9717717B1, “Methods of treating cancer through the inhibition of USP7 and immune system modulation” (Progenra, Inc., priority 2015, dated 2017).

In one data set the test system is TC1 lung tumor. The data set is described as follows: TC1 flank tumor model in immunocompetent mice. The data set is classed as in vivo, B6 mice. As to the method: Inhibition was statistically significant at the p<0.05 level (**).
USP7 targeting inhibits flank tumor growth via a Treg-dependent mechanism in immunocompetent mice (FIGS. 8A and 8B). Eight week-old B6 mice were injected with 5×10^5 TC1 tumor cells, and 1 week later, when tumors had reached ˜100 mm^3, mice were implanted with 14 day Alzet pumps containing vehicle or USP7i at doses 0.6 mg/kg, 1 mg/kg, and 6 mg/kg. Tumor growth was measured twice weekly for 2 weeks, and the study continued for an additional time period without further dosing. At sacrifice, spleens, draining lymph nodes (DLN), and tumors can be assessed by flow cytometry, histology, immunohistology and qPCR. Such studies can be performed in both immunocompetent and immunodeficient mice.

The subject of the next data set is UHRF1. In words: Immunoblot of UHRF1 level in treated Jurkat cells. The data set is classed as cell-based. Particulars: immunoblot (FIG. 6). As to the method:
(§1) FIG. 6 graphically illustrates a decrease in USP7 oncogenic substrates HDM2 and UHRF1 levels in Jurkat cells treated with the USP7i compound 5. 20 μg total cell lysates from each samples were separated on 10% SDS-PAGE and immunoblotted with antibodies against HDM2, UHRF1 and Actin (loading control).
(§2) Jurkat cells were incubated with an exemplary compound of the present invention (e.g., compound 5), washed, and incubated for an additional 0-96 h. USP7 was immunoprecipitated from lysates and USP7 activity measured. […] Total cell deubiquitinase activity can be performed to determine selectivity of these compounds (FIG. 5C). These experiments delineate a simple, powerful biomarker for determining the dose-efficacy relationship in the pre-clinical/clinical evaluation of irreversible USP7 inhibitors. Inhibitors were also tested in cells for effects on various PD markers, including two major USP7 substrates, HDM2 and UHRF1.

In the next data set the test system is HDM2. The data set is described as follows: Immunoblot of HDM2 level in treated Jurkat cells. In kind it is cell-based. Particulars: immunoblot (FIG. 6). The procedure: as §1, §2
In general terms: A western blot detects proteins with antibodies after separation by electrophoresis.

A further data set has as its target USP7 core C223A (Homo sapiens, UniProt Q93009, C223A). In words: LC-MS detection of covalent adduct with USP7 core active site cysteine mutant C223A. The data set is classed as binding. Particulars: 5 μM C223A, 100 μM compound, room temperature, 4 hrs. The procedure:
(§3) FIG. 4 provides data showing an example of the covalent irreversible nature of disclosed USP7 inhibitors. 5 μM purified USP7core WT or active site cysteine mutant C223A were incubated with 100 μM Compound 5 or DMSO at room temperature for 4 hrs, and then the protein/compound reaction products were mixed with equal volume of 0.1% Trifluoroacetic acid (TFA) before LC-MS injection. The samples were analyzed by reverse-phase liquid chromatography coupled to UV and MS detection (Agilent, 6220 Accurate-Mass Time-of-Flight (TOF) LC/MS). […] FIG. 4 provides data showing an example of the covalent irreversible nature of disclosed USP7 inhibitors. 5 μM purified USP7core WT or active site cysteine mutant C223A were incubated with 100 μM Compound 5 or DMSO at room temperature for 4 hrs, and then the protein/compound reaction products were mixed with equal volume of 0.1% Trifluoroacetic acid (TFA) before LC-MS injection. The samples were analyzed by reverse-phase liquid chromatography coupled to UV and MS detection (Agilent, 6220 Accurate-Mass Time-of-Flight (TOF) LC/MS).

For the next data set, the system named is Murine Tregs. In words: 3-day Treg suppression assay (CFSE-labeled T effector cell proliferation, FACS). In kind it is cell-based. Particulars: Tregs pre-treated with 10 μM for 2 h, washed (FIG. 7). As to the method: FIG. 7 graphically illustrates the inhibition of Treg functions after treatment with USP7 inhibitor compound 5. Murine Tregs were pre-treated with compound 5 for 2 hrs, washed and incubated with carboxyfluorescein succinimidyl ester (CFSE) labeled T effector cells at varying concentrations for 3 days. T effector cell proliferation was monitored using FACS analysis. Percentage proliferation is plotted using Graphpad prism.
Initial in vitro determination of the effect of compounds on the Treg-Teff system was performed by co-culturing drug pretreated Treg cell with Teff cells for three days and determining the Teff proliferation by flow cytometry. The compounds that were active in enhancing Teff growth were then examined for their effect on biomarkers. The most interesting compounds were tested for their effect on tumor growth in immune competent mice inoculated with lung cancer cells subcutaneously.
3-day Treg suppression assay in which isolated Tregs were treated with DMSO or experimental compound, washed and added to wells in which T cell proliferation was induced by CD3 mAb plus APC; % proliferation of CFSE-labeled conventional (Tcon) cells is shown in blue for each Treg:Tcon ratio. […] Flow cytometry confirmed marked or moderate down-regulation of Foxp3 expression by Treg cells exposed to potential inhibitor for 2 hrs. […]

The next data set has as its target T1, USP7 (Homo sapiens, UniProt Q93009).
T1 construct: endogenous in cells; host or cells: Jurkat
The data set is described as follows: DUB activity of USP7 immunoprecipitated from treated Jurkat cells (Ub-EKL assay). In kind it is cell-based. Particulars: for USP7 catalytic activity returned after washout: Jurkat cells exposed for 2 hours. As to the method:
FIG. 5A-FIG. 5C graphically illustrate that the disclosed USP7 inhibitors of the invention are irreversible inhibitors. Jurkat cells were treated with 10 μM USP7i for indicated time period (FIG. 5A) or pulse treated for 2 h with 10 μM compound 5 (FIG. 5B), washed and incubated for the indicated time period followed by DUB activity measurement of immunoprecipitated USP7 as well as total cell lysate (FIG. 5C) using Ub-EKL assay as described previously (U.S. Pat. No. 8,680,139). A portion of the immunoprecipitated USP7 is separated on 10% SDS-PAGE and immunoblotted with anti-USP7 antibody to detect the level of USP7 protein (shown at the top of graphs in FIG. 5A and FIG. 5B). […] Jurkat cells were exposed to Compound 5 for 2 hours and the compounds were washed away followed by incubation for various time points. Cells were harvested, lysed and their USP7 immunoprecipitated and washed with buffer. […] Jurkat cells were incubated with an exemplary compound of the present invention (e.g., compound 5), washed, and incubated for an additional 0-96 h. USP7 was immunoprecipitated from lysates and USP7 activity measured. […] Total cell deubiquitinase activity can be performed to determine selectivity of these compounds (FIG. 5C). These experiments delineate a simple, powerful biomarker for determining the dose-efficacy relationship in the pre-clinical/clinical evaluation of irreversible USP7 inhibitors. Inhibitors were also tested in cells for effects on various PD markers, including two major USP7 substrates, HDM2 and UHRF1.

Another data set concerns the target T2, USP7core WT (Homo sapiens, UniProt Q93009).
T2 construct: 5 μM purified USP7core WT or active site cysteine mutant C223A were incubated with 100 μM Compound 5
In words: LC-MS detection of covalent adduct with purified USP7core WT. In kind it is binding. Particulars: 5 μM USP7core WT, 100 μM compound, room temperature, 4 hrs. The procedure:
as §3

For data set [1] the following is noted: pooled analysis of 14 phase I-III studies, various doses; cited from earlier work.

T1 sequence (Q93009 whole entry): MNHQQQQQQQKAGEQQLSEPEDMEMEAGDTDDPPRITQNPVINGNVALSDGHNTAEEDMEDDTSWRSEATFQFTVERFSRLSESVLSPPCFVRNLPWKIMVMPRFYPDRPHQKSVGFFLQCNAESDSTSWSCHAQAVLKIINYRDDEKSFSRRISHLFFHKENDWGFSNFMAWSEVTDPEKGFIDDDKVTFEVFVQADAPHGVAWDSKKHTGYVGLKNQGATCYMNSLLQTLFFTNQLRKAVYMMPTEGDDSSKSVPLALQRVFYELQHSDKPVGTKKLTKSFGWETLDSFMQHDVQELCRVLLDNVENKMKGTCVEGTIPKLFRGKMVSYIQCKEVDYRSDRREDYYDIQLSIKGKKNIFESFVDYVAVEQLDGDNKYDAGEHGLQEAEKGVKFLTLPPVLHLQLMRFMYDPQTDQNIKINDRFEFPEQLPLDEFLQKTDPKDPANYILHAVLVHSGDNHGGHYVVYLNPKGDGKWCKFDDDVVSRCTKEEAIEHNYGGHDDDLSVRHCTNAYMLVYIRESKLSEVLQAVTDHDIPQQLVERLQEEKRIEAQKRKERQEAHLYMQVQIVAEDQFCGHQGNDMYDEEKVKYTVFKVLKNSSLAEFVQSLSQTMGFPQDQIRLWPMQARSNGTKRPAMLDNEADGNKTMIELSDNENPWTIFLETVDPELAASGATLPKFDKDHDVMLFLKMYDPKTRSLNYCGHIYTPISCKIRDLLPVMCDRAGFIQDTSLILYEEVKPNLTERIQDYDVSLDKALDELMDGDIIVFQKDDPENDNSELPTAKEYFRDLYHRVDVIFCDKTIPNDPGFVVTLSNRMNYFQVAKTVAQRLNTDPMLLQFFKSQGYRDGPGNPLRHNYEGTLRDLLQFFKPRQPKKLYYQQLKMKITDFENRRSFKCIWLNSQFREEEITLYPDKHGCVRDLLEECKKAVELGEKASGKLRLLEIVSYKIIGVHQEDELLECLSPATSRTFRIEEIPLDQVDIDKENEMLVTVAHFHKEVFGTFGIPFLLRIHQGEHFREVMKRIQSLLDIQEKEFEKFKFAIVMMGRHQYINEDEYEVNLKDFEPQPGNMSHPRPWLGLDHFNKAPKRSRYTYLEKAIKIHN
T2 sequence (Q93009 214-521 limits assumed): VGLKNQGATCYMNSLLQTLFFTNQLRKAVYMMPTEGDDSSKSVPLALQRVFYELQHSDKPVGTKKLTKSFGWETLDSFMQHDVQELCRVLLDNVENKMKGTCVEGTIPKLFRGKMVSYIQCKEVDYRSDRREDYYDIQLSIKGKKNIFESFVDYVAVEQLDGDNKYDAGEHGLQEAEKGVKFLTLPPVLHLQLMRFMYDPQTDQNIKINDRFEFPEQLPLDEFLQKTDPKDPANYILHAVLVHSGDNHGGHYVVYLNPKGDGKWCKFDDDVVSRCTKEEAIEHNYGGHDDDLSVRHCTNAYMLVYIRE
Chain of USP7 core C223A (Q93009 214-521 C223A limits assumed): as the sequence (Q93009 214-521 limits assumed) above, with C10A counted along it

Consider `CS(=O)(=O)c1cccc(NC(=O)c2cc([N+](=O)[O-])c(Sc3c(Cl)cncc3Cl)s2)c1` [Compound 5, 5-[(3,5-dichloropyridin-4-yl)sulfanyl]-N-[3-(methylsulfonyl)phenyl]-4-nitrothiophene-2-carboxamide], for which the “TC1 lung tumor growth” value in the data set on TC1 lung tumor (Day 16, statistically significant p<0.05 (FIG. 8A, 8B)) was “inhibition of TC1 lung tumor growth”. Further, in the data set on TC1 lung tumor (TC1 tumors (FIG. 8B)), the tumor regression entry is “complete tumor regression in several mice”. The UHRF1 level entry with UHRF1 was “decrease”. In addition, the HDM2 level result in the data set with HDM2 is on record as “decrease”. Besides, the “covalent adduct formation with USP7 core C223A” value on USP7 core C223A is “failed to form an adduct”. Further, the Treg suppressive functions result in the data set with Murine Tregs was “marked impairment of Treg suppressive functions”. Besides, the “USP7 catalytic activity returned after washout” value at USP7 (washed, after 48 hours) was “about 55%”; at USP7 (washed, after 72 hours) it was 68%. Further, on USP7 (Jurkat cells, 10 μM for 2 h, washed, even after 72 h (FIG. 5B)), the “USP7 activity after pulse treatment” value was “prolonged inhibition of USP7 activity”. Besides, the “catalytic activity of isolated USP7” value at USP7 (Jurkat cells, incubation with inhibitor for 1 h (FIG. 5A)) was “significant inhibition of catalytic activity”. In addition, the “covalent adduct formation with USP7 core” value at USP7core WT is given as “formed a covalent adduct”.
For ipilimumab, in data set [1], the “patients with immune-related adverse effects” value is reported as 64%.
